Measurements as given in PubChem BioAssay (NCI).
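48-hour exposure; five concentrations; linearly interpolated endpoints. Here, GI50 denotes the concentration required for 50% inhibition of growth. TGI: concentration producing complete growth inhibition.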

Tests used:
Assay in all cases: NCI tumour cell line growth inhibition, 48 h
[1] = test system: T-47D breast
[2] = test system: K-562 leukemia
[3] = test system: NCI-H226 lung
[4] = test system: MOLT-4 leukemia
[5] = test system: 786-0 renal
[6] = test system: SNB-19 CNS
[7] = test system: HT29 colon
[8] = test system: U251 CNS
[9] = test system: HOP-62 NSCLC
[10] = test system: BT-549 breast
[11] = test system: UO-31 renal
[12] = test system: HCC-2998 colon
[13] = test system: OVCAR-4 ovarian
[14] = test system: UACC-62 melanoma
[15] = test system: MDA-MB-435
[16] = test system: NCI-H522 lung
[17] = test system: LOX IMVI melanoma
[18] = test system: TK-10 renal
[19] = test system: MDA-MB-231 breast
[20] = test system: SK-MEL-5 melanoma
[21] = test system: SF-268 CNS
[22] = test system: CAKI-1 renal
[23] = test system: A498 renal
[24] = test system: OVCAR-3 ovarian
[25] = test system: SK-MEL-2 melanoma
[26] = test system: SW-620 colon
[27] = test system: DU-145 prostate
[28] = test system: KM12 colon
[29] = test system: NCI-H23 lung
[30] = test system: SNB-75 CNS
[31] = test system: NCI/ADR-RES ovarian
[32] = test system: OVCAR-5 ovarian
[33] = test system: NCI-H460 lung
[34] = test system: HS 578T breast
[35] = test system: MCF7 breast
[36] = test system: IGROV1 ovarian
[37] = test system: SF-539 CNS
[38] = test system: SK-OV-3 ovarian
[39] = test system: COLO 205 colon
[40] = test system: SK-MEL-28 melanoma
[41] = test system: EKVX NSCLC
[42] = test system: SN12C renal
[43] = test system: ACHN renal
[44] = test system: OVCAR-8 ovarian
[45] = test system: HCT-116 colon
[46] = test system: A549 NSCLC
[47] = test system: SF-295 CNS
[48] = test system: PC-3 prostate
[49] = test system: UACC-257 melanoma
[50] = test system: HCT-15 colon
[51] = test system: M14 melanoma
[52] = test system: MALME-3M melanoma
[53] = test system: CCRF-CEM leukemia
[54] = test system: HOP-92 NSCLC
[55] = test system: HL-60(TB) leukemia
[56] = test system: RPMI-8226 leukemia

## CNC(=O)[C@H](Cc1c[nH]c2ccccc12)NC(=O)[C@@H](CC(=O)NO)CC(C)C
[1]
  GI50: > 25 µM
  TGI: > 25 µM
[2]
  GI50: 21.6 µM
  TGI: > 25 µM
[3]
  GI50: > 25 µM
  TGI: > 25 µM
[4]
  GI50: > 25 µM
  TGI: > 25 µM
[5]
  GI50: > 25 µM
  TGI: > 25 µM
[6]
  GI50: > 25 µM
  TGI: > 25 µM
[7]
  GI50: > 25 µM
  TGI: > 25 µM
[8]
  GI50: > 25 µM
  TGI: > 25 µM
[9]
  GI50: > 25 µM
  TGI: > 25 µM
[10]
  GI50: > 25 µM
  TGI: > 25 µM
[11]
  GI50: > 25 µM
  TGI: > 25 µM
[12]
  GI50: > 25 µM
  TGI: > 25 µM
[13]
  GI50: > 25 µM
  TGI: > 25 µM
[14]
  GI50: > 25 µM
  TGI: > 25 µM
[15]
  GI50: > 25 µM
  TGI: > 25 µM
[16]
  GI50: > 25 µM
  TGI: > 25 µM
[17]
  GI50: > 25 µM
  TGI: > 25 µM
[18]
  GI50: > 25 µM
  TGI: > 25 µM
[19]
  GI50: > 25 µM
  TGI: > 25 µM
[20]
  GI50: > 25 µM
  TGI: > 25 µM
[21]
  GI50: > 25 µM
  TGI: > 25 µM
[22]
  GI50: > 25 µM
  TGI: > 25 µM
[23]
  GI50: > 25 µM
  TGI: > 25 µM
[24]
  GI50: > 25 µM
  TGI: > 25 µM
[25]
  GI50: > 25 µM
  TGI: > 25 µM
[26]
  GI50: > 25 µM
  TGI: > 25 µM
[27]
  GI50: > 25 µM
  TGI: > 25 µM
[28]
  GI50: > 25 µM
  TGI: > 25 µM
[29]
  GI50: > 25 µM
  TGI: > 25 µM
[30]
  GI50: > 25 µM
  TGI: > 25 µM
[31]
  GI50: > 25 µM
  TGI: > 25 µM
[32]
  GI50: > 25 µM
  TGI: > 25 µM
[33]
  GI50: > 25 µM
  TGI: > 25 µM
[34]
  GI50: > 25 µM
  TGI: > 25 µM
[35]
  GI50: > 25 µM
  TGI: > 25 µM
[36]
  GI50: > 25 µM
  TGI: > 25 µM
[37]
  GI50: > 25 µM
  TGI: > 25 µM
[38]
  GI50: > 25 µM
  TGI: > 25 µM
[39]
  GI50: > 25 µM
  TGI: > 25 µM
[40]
  GI50: > 25 µM
  TGI: > 25 µM
[41]
  GI50: > 25 µM
  TGI: > 25 µM
[42]
  GI50: > 25 µM
  TGI: > 25 µM
[43]
  GI50: > 25 µM
  TGI: > 25 µM
[44]
  GI50: > 25 µM
  TGI: > 25 µM
[45]
  GI50: > 25 µM
  TGI: > 25 µM
[46]
  GI50: > 25 µM
  TGI: > 25 µM
[47]
  GI50: > 25 µM
  TGI: > 25 µM
[48]
  GI50: > 25 µM
  TGI: > 25 µM
[49]
  GI50: > 25 µM
  TGI: > 25 µM
[50]
  GI50: > 25 µM
  TGI: > 25 µM
[51]
  GI50: > 25 µM
  TGI: > 25 µM
[52]
  GI50: > 25 µM
  TGI: > 25 µM

## Cc1cn2c(/C=N/N=C(N)N)c(-c3cc([N+](=O)[O-])c(Cl)cc3Cl)nc2s1
[11]
  TGI: 3.74 µM
[31]
  TGI: > 100 µM
[39]
  TGI: > 100 µM
[46]
  TGI: > 100 µM

## CCc1cn2c(/C=N/N=C(N)N)c(-c3cc(C)c(Cl)cc3Cl)nc2s1
[7]
  TGI: 2.45 µM
[10]
  TGI: 3.2 µM
[13]
  TGI: 2.78 µM
[14]
  TGI: 2.72 µM
[15]
  TGI: 2.76 µM
[18]
  TGI: 3.46 µM
[19]
  TGI: 2.12 µM
[20]
  TGI: 2.99 µM
[23]
  TGI: 3.75 µM
[27]
  TGI: 3 µM
[29]
  TGI: 3.16 µM
[30]
  TGI: 2.88 µM
[31]
  TGI: 24.8 µM
[32]
  TGI: 2.96 µM
[37]
  TGI: 3.11 µM
[38]
  TGI: 3.56 µM
[39]
  TGI: 3.61 µM
[40]
  TGI: 2.82 µM
[43]
  TGI: 3.04 µM
[50]
  TGI: 2.97 µM

## COc1ccc(-n2cc(-c3cc(OC)c(OC)c(OC)c3)nc2SCc2cccc(C#N)c2)cc1OC
[1]
  GI50: > 100 µM
  TGI: > 100 µM
[2]
  GI50: 56.9 µM
  TGI: > 100 µM
[3]
  GI50: > 100 µM
  TGI: > 100 µM
[53]
  GI50: > 100 µM
  TGI: > 100 µM
[4]
  GI50: 51.7 µM
  TGI: > 100 µM
[5]
  GI50: > 100 µM
  TGI: > 100 µM
[6]
  GI50: > 100 µM
  TGI: > 100 µM
[7]
  GI50: 14.1 µM
  TGI: > 100 µM
[8]
  GI50: > 100 µM
  TGI: > 100 µM
[9]
  GI50: > 100 µM
  TGI: > 100 µM
[54]
  GI50: 27.8 µM
  TGI: 78.9 µM
[11]
  GI50: > 100 µM
  TGI: > 100 µM
[12]
  GI50: > 100 µM
  TGI: > 100 µM
[13]
  GI50: 2.12 µM
  TGI: 39.6 µM
[14]
  GI50: > 100 µM
  TGI: > 100 µM
[15]
  GI50: 90.5 µM
  TGI: > 100 µM
[16]
  GI50: 90 µM
  TGI: > 100 µM
[17]
  GI50: > 100 µM
  TGI: > 100 µM
[18]
  GI50: > 100 µM
  TGI: > 100 µM
[19]
  GI50: > 100 µM
  TGI: > 100 µM
[20]
  GI50: 71.8 µM
  TGI: > 100 µM
[21]
  GI50: 95.8 µM
  TGI: > 100 µM
[22]
  GI50: > 100 µM
  TGI: > 100 µM
[23]
  GI50: > 100 µM
  TGI: > 100 µM
[24]
  GI50: 65 µM
  TGI: > 100 µM
[25]
  GI50: > 100 µM
  TGI: > 100 µM
[26]
  GI50: 34 µM
  TGI: > 100 µM
[27]
  GI50: > 100 µM
  TGI: > 100 µM
[28]
  GI50: > 100 µM
  TGI: > 100 µM
[29]
  GI50: > 100 µM
  TGI: > 100 µM
[30]
  GI50: 0.924 µM
  TGI: > 100 µM
[31]
  GI50: > 100 µM
  TGI: > 100 µM
[32]
  GI50: > 100 µM
  TGI: > 100 µM
[33]
  GI50: > 100 µM
  TGI: > 100 µM
[55]
  GI50: > 100 µM
  TGI: > 100 µM
[34]
  GI50: 62.2 µM
  TGI: > 100 µM
[35]
  GI50: 66.2 µM
  TGI: > 100 µM
[36]
  GI50: > 100 µM
  TGI: > 100 µM
[37]
  GI50: 90.3 µM
  TGI: > 100 µM
[38]
  GI50: > 100 µM
  TGI: > 100 µM
[39]
  GI50: > 100 µM
  TGI: > 100 µM
[40]
  GI50: 16.8 µM
  TGI: > 100 µM
[41]
  GI50: > 100 µM
  TGI: > 100 µM
[42]
  GI50: > 100 µM
  TGI: > 100 µM
[43]
  GI50: > 100 µM
  TGI: > 100 µM
[45]
  GI50: 46 µM
  TGI: > 100 µM
[56]
  GI50: > 100 µM
  TGI: > 100 µM
[46]
  GI50: 82.3 µM
  TGI: > 100 µM
[47]
  GI50: > 100 µM
  TGI: > 100 µM
[48]
  GI50: 59.8 µM
  TGI: > 100 µM
[50]
  GI50: > 100 µM
  TGI: > 100 µM
[51]
  GI50: > 100 µM
  TGI: > 100 µM
[52]
  GI50: > 100 µM
  TGI: > 100 µM
